US8653271B2 (priority 2006, dated 2014)
Values after ≈ are worked out from the molar mass of the structure shown.

How the values were obtained:
[1] = saturated solution in light mineral oil, human skin, 32° C., 48 h; codrug in 6-β-naltrexol equivalents
Protocol: Human skin harvested during abdominal reduction surgery was used for the diffusion studies. Skin sections were obtained by using a Padgett dermatome set to 250 μm; these sections were stored at −20° C. Stored skin samples were thawed to room temperature at the time of the experiment. A PermeGear flow-through (In-Line, Riegelsville, Pa., USA) diffusion cell system was used for the skin permeation studies. Skin surface temperature was maintained at 32° C. with a circulating water bath. Data was collected by using human skin from a single donor with three cells of 6-β-naltrexol and four cells CB-NTXOL-BUPOH. Because of normal human skin inter-subject permeation variability, the codrug was compared against 6-β-naltrexol permeation within each individual skin sample. These studies were repeated three times with skin from different human subject donors. The receiver solution was HEPES-buffered Hanks' balanced salt solution pH 7.4 set at a flow rate of 1.1 ml/h. […] A saturated solution of 6-β-naltrexol or CB-NTXOL-BUPOH in light mineral oil was applied to the skin in order to maintain a maximum and constant thermodynamic activity of the drug. Each cell was charged with 0.25 ml of the respective drug solution. […] All samples were immediately processed by solid phase extraction, evaporated under nitrogen, reconstituted, and analyzed for drug content by HPLC. The human tissue use was approved by the University of Kentucky Institutional Review Board.
Cumulative quantity of drug collected in the receiver compartment was plotted as a function of time. The flux value for a given experiment was obtained from the slope of the steady-state portion of the cumulative amount of drug permeated vs. time plot. Apparent permeability coefficient values were computed from Fick's First Law of diffusion:
Sink conditions were maintained in the receiver throughout the experiment, so ΔC was approximated by the drug concentration (solubility in this case) in the donor compartment.
The skin tissue was rinsed with filtered water and blotted with a paper towel. The tissue was tape-stripped twice to remove surface formulation. The area of skin with drug contact was cut out, chopped into tiny pieces, and placed in a pre-weighed vial. The vial was weighed to calculate the mass of the skin. Ten milliliters of acetonitrile was added to each vial, the vials vortexed, sonicated for 10 min, and placed in a shaker overnight. The following day, a 1 ml sample was obtained from the vials and placed in autosampler vials for analysis. […] Flux values and skin concentrations for each of the drugs were reported as mean±S.D and were statistically compared using a paired Student's t-test. Flux enhancement as well as drug disposition in the skin were considered significant at p<0.05.

[2] = Differential scanning calorimetry; format: physicochemical
[3] = Plasma hydrolysis of the carbonate codrug; format: in vitro ADME, guinea pig; conditions: guinea pig plasma in vitro at 37° C.
Protocol: Guinea pig plasma, which was stored at −20° C., was thawed to room temperature. Known and sub-saturated amounts of the codrug (50 nmol) were added to approximately 2.0 ml of the guinea pig plasma and vortexed. Two-hundred μl aliquots of the spiked plasma were distributed into sealed vials, and incubated at 37° C. Samples were withdrawn at predetermined time intervals; 0, 0.5, 1, 2, 4, 6, 9, 24, 30, and 48 h. 500 μl of ACN was added to each sample to precipitate plasma protein. Each sample was vortexed and centrifuged at 10,000×g for 15 min. The supernatant was separated and evaporated under nitrogen at room temperature, and the residue was reconstituted with ACN for high-pressure liquid chromatography (HPLC) analysis. A standard curve was prepared from drug-spiked plasma samples processed by the same method. The amounts of the codrug remaining or parent drugs released were plotted against time. These hydrolytic profiles were fit to previously developed mathematical models using nonlinear least-squares regression analysis ([…]®, Micromath Inc., Salt Lake City, Utah) as described by the equations below: […]

[4] = Table 4; values obtained from Kiptoo et al.; cited from earlier work
physchem = format: physicochemical; conditions: thermodynamic from solid
Protocol: The solubilities of CB-NTXOL-BUPOH, hydroxybupropion, and 6-β-naltrexol were determined by adding excess quantity of drug to mineral oil or pre-warmed HEPES-buffered Hanks' salt solution pH 7.4 at 32° C. (skin surface temperature), with equilibration while shaking in a water bath at 60 rpm. Weighing 4 mg of each of the drugs and placing them in 1 ml of each of the respective solvents was enough to ensure that there was excess drug in solution. Samples were drawn into a pre-warmed glass syringe, filtered through a syringe filter (Mineral oil: Millex FG-13, Millipore, Billerica, Mass., USA, and buffer: nylon filter, Gelman, East Hills, N.Y., USA), and measured with respect to volume and diluted with an appropriate volume of acetonitrile or buffer. The drug from the buffer samples was immediately extracted by solid phase extraction as described above. Drugs in mineral oil were diluted with a hundred-fold volume of acetonitrile and extraction recoveries were >95% for all the drugs. The sampling procedure was done in triplicate, discarding the first 40% of the initial filtrate. […]. For buffer solubilities, samples were taken after 30 min of sonication (to minimize the hydrolysis of the codrug). No significant difference was found between 30 min sonication solubility measurements and equilibrium solubility measurements taken after 48 h for 6-β-naltrexol.

[5] = human skin, values obtained from Kiptoo et al., cited from earlier work
[6] = format: physicochemical
Protocol: Equal amounts of the each of the codrug were distributed into labeled test-tubes (20 nmol in each tube). Care was taken to ensure that the entire codrug was dissolved and the solution remained clear. Hydrolysis of the carbonate codrug (˜20 nmol) was conducted in isotonic phosphate buffer pH 7.4 at 32° C. in a water-bath with continuous stirring. […] Samples were collected at predetermined time intervals and stored in the freezer at −20° C. until analyzed. All experiments were conducted in triplicate. An aliquot part (250 μL) of hydrolysis solutions was mixed with 750 μL of acetonitrile, vortexed for 30s, and analyzed by HPLC for the presence of codrug and the two corresponding parent drugs, as well as for the intermediate hydrolysis product, 23. […] A Brownlee C18 reversed-phase Spheri-5 μm column (220×4.6 mm) connected to a C18 reversed-phase guard column (15×3.2 mm) was utilized and detection of solutes was carried out at 215 nm. The mobile phase consisted of a mixture of acetonitrile: 0.1% trifluoroacetic acid adjusted to pH 3.0 with triethylamine (50:50, v/v). The mobile phase flow rate was 1.5 mL/min and 100 μL of hydrolysis sample was injected onto the column.

[7] = humans; cited from earlier work

## CC1NC(C)(C)COC1(O)c1cccc(Cl)c1 (racemic) [Compound 4, (+/−)-2-(3-chlorophenyl)-3,5,5-trimethyl-2-morpholinol]
[1]
  Flux from mineral oil: 25.89 nmol cm^−2 h^−1
[2]; calculated from melting point and heat of fusion
  Mean activity of solid @ T = 25° C., a2: 0.34
[2]; ±s.d., n = 3
  Heat of fusion, ΔHf: 10.8 ± 0.05 kJ/mol
[3]
  Guinea pig plasma half-life: stable
[4]
  Light mineral oil solubility: 4.04 ± 0.04 mM
physchem; aqueous buffer, pH 7.4, 32° C., 30 min sonication, read-out: Hanks' buffer solubility
  solubility at 30 min: 3.85 mM (≈ 985 µg/mL)
physchem; oil or lipid, 32° C., 48 h equilibration (Table 3), read-out: Light mineral oil solubility
  solubility at 48 h: 4.04 mM (≈ 1030 µg/mL)
[5]; codrug as NTXOL equivalent flux
  In vitro flux: 25.89 ± 6.01 nmol cm^−2 h^−1
[5]
  In vitro lag time: 7.83 ± 1.73 h

## Cc1c(-c2cccc(Cl)c2)oc(=O)n1C(C)(C)COC(=O)Oc1ccc2c3c1OC1C(=O)CCC4(O)C(C2)N(CC2CC2)CCC314 (stereo not drawn) [Compound 25]
[6]; generation of BUPOH from codrug 25, isotonic phosphate buffer pH 7.4
  first-order rate constant k3: 0.0483 h⁻¹
[6]; hydrolysis at carbonate linker generating NTX (25) or NTXOL (26), isotonic phosphate buffer pH 7.4, 32° C.
  first-order rate constant k1: 0.0179 h⁻¹

## O=C1CC[C@@]2(O)[C@H]3Cc4ccc(O)c5c4[C@@]2(CCN3CC2CC2)[C@H]1O5 [Compound 1, Naltrexone]
[7]
  oral bioavailability: 5-40%
